Values of other authors as cited in US20100209480A1, “GALENICAL FORMULATIONS OF ORGANIC COMPOUNDS” (priority 2007, published 2010).

Conditions: drug substance

Hygroscopicity: highly hygroscopic
SMILES: COCCCOc1cc(C[C@@H](C[C@H](N)[C@@H](O)C[C@H](C(=O)NCC(C)(C)C(N)=O)C(C)C)C(C)C)ccc1OC [Aliskiren, 2(S),4(S),5(S),7(S)—N-(3-amino-2,2-dimethyl-3-oxopropyl)-2,7-di(1-methylethyl)-4-hydroxy-5-amino-8-[4-methoxy-3-(3-methoxy-propoxy)phenyl]-octanamide]
